We go through 6 molecules from patent publication US20250129073A1, “INHIBITOR OF RECEPTOR-INTERACTING PROTEIN KINASE 1, AND PREPARATION METHOD AND USE THEREFOR” (CHINA PHARMACEUTICAL UNIVERSITY, priority 2021, published 2025).

SMILES strings stand for the structures.

The target in one experiment is RIPK1 kinase (Homo sapiens (Human), UniProt Q13546). Description: RIPK1 kinase inhibitory assay (ADP-Glo). The class given is biochemical. Conditions: for inhibition at 10 µM: 10 μM compound, read-out: Inhibition rate of RIPK1 at 10 μM (%). Here is the method: Materials and Instruments: ADP-Glo kinase kit (purchased from Promega), RIPK1 GST-Th-Tag (purchased from Bps Bioscience), MBP substrate (purchased from Millipore), nunc 384-well plate, ATP fluorescence analyzer Paradigm detection platform (purchased from Beckman coulter)
Sequence of RIPK1 kinase (Q13546 whole entry): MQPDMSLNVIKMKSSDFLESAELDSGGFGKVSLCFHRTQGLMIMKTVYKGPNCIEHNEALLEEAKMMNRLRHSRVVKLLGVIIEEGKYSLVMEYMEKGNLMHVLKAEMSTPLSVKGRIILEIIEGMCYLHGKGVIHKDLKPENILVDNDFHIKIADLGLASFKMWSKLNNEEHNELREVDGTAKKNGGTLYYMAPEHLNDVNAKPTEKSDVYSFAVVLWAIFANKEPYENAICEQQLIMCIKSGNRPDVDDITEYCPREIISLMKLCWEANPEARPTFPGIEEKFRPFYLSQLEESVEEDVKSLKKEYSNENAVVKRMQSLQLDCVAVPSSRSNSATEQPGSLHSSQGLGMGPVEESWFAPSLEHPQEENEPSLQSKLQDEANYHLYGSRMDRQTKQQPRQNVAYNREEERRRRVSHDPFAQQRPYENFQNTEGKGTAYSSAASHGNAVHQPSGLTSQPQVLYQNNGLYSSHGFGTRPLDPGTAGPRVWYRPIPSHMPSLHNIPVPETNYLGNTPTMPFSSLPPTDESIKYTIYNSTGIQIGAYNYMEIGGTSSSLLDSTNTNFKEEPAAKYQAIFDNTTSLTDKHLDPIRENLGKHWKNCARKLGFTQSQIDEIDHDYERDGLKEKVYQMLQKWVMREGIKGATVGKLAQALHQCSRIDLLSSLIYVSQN
The compounds were diluted in DMSO and configured into a solution with a final concentration of 10 mM; Dilute RIP1 kinase from 140 ng/μL to 20 ng/μL for use. Dilute 10 mM of ATP to 100 μM for later use; Dilute 5 mg/mL of MBP to 1 mg/mL for later use. Appropriate embodiments were added into the well of the 384-well plate, 10 μl […] ATP was evenly mixed with 1 μl 1 mg/mL MB P, the mixed solution was added to the well, and 2 μL […] RIP1 kinase was added to the hole, and then incubated at room temperature for 1 h. Subsequently, 5 μL ADP-Glo reagent was added to each well and incubated at room temperature for 40 min. Then, 10 μL ADP-Glo detection reagent was added to each well and incubated at room temperature for 30 min. Finally, the RLU value (relative light unit) of each well was measured by ATP fluorometer, and each sample was repeated twice. Inhibition rate=(RLU value of blank group−RLU value of drug administration group)/RLU value of blank group×100%.

The subject of a further experiment is U937 cells. The experiment in a line: Cell anti-necroptosis activity assay (LPS + Z-VAD-FMK, CCK8). Conditions: Homo sapiens, U-937; PMA-differentiated U937, LPS 100 ng/ml + Z-VAD-FMK 20 μM, 24 h; read-out: EC50 of inhibition of necroptosis. The class given is cell-based. Here is the method: Materials: U937 cell line (human myeloid leukemia cells), RPMI 1640 medium (purchased from Gibco, USA), penicillin-streptomycin double antibody (purchased from Gibco, USA), fetal bovine serum (purchased from genetic, USA), tetradecanoylphorbol acetate (purchased from biyuntian Biotechnology Co., Ltd.), CCK8 cell proliferation detection kit (purchased from biyuntian Biotechnology Co., Ltd), Z-VAD-FMK (from APExBIO, USA) and LPS (from Sigma, USA).
U937 cells were cultured in RPMI 1640 containing 10% heat inactivated fetal bovine serum and 1% penicillin-streptomycin in a constant temperature cell incubator at 37° C. and 5% CO2, and subcultured every 1-2 days. Human monocytic cell line U937 cells could be induced to differentiate into mature monocytes/macrophages after stimulation with tetradecanoylphorbol acetate (PMA). The cells in the logarithmic growth phase were seeded in 96 well plates at a density of 4×10^4 cells/well and cultured. PMA 100 ng/ml was added for 24 h, and then the fresh medium was changed. The necroptosis model was constructed by stimulation of LPS and caspase inhibitor Z-VAD-FMK. In the experimental groups, LPS (100 ng/ml) was added for 1 hour, and then the solvent control (DMSO) or different concentrations of compounds to be tested (30 μM, 10 μM, 3 μM, 1 μM, 300 nM, 100 nM, 30 nM 7 concentrations in total) for 1 h, and then the experimental groups were treated with caspase inhibitor Z-VAD-FMK (20 μM). The cell viability was detected after 24 h of culture. The control groups were not treated with LPS, drugs and Z-VAD-FMK. No cells were added to the blank hole, only the culture medium. Each group is set with 4 parallel. CCK8 cell proliferation assay kit was used to detect the cell viability and survival rate, and the operation was carried out according to the kit instructions. The cell supernatant was added with 10 μL CCK8 detection reagent, and the cell absorbance (450 nm) was detected by a microplate reader after 0.5 h. Calculate the cell death rate (%)=(average absorbance of control well−average absorbance of experimental group)/(average absorbance of control well−average absorbance of the blank well)×100. Finally, the half effective concentration (EC50) of the drug was calculated by GraphPad Prism 7.0® software.

Experiment [1] has as its system rat model of ischemic stroke (MCAO). Description: Rat MCAO cerebral ischemia/reperfusion model of ischemic stroke. It counts as in vivo. Conditions: tMCAO rats. Here is the method:
Animals: SPF-grade male Sprague Dawley (SD) rats (purchased from Beijing Weitonglihua Experimental Animal Technology Co., Ltd.). Rats were fed with a free diet, 12 h: 12 h circadian rhythm.
Material: 2,3,5-Triphenyltetrazolium chloride (purchased from Beijing Solebo Technology Co., Ltd.), N,N-Dimethylacetamide (purchased from Shanghai Aladdin Biochemical Technology Co., Ltd.), castor oil polyoxyethylene ether (purchased from Shanghai McLean Biochemical Technology Co., Ltd.), sodium chloride (purchased from Bioengineering (Shanghai) Co., Ltd.), isoflurane (purchased from Shenzhen ruiwode Life Technology Co., Ltd.), and Sodium dihydrogen phosphate (purchased from Sinopharm group), disodium hydrogen phosphate (purchased from Sinopharm group), paraformaldehyde (purchased from biotechnology (Shanghai) Co., Ltd.) and thread bolt (purchased from Beijing Xinong Technology Co., Ltd.).
Methods: A rat model of ischemic stroke was established by middle cerebral artery occlusion (MCAO) of cerebral ischemia/reperfusion: Healthy male SD rats (weighing 260±40 g) were anesthetized with 5% isoflurane and maintained with 1.5%-2% isoflurane. The rats were fixed in the supine position, and the right common carotid artery, internal carotid artery and external carotid artery were separated through the median neck incision and threaded for standby. The proximal end of the common carotid artery and the external carotid artery were ligated, and the internal carotid artery was clamped with an artery clamp. The suture plug was cut and inserted at about 0.5 cm from the bifurcation of the common carotid artery. The artery clamp was released, and the suture plug was delivered until the blood flow of the middle cerebral artery was blocked. After 60 minutes of ischemia, the suture plug was removed to restore blood flow. The rectal temperature was maintained at 37±0.5° C. during the operation. After 48 hours of ischemia/reperfusion, the neurological function was evaluated by modified neurological severity score (MNSs). The cerebral infarction volume was detected by TTC staining, and the brain water content was detected to evaluate the cerebral edema.

Where [2] appears, read: 2.5 mg/kg and 5 mg/kg bid, 48 h after ischemia/reperfusion.

Take `O=C(c1ccc2cc[nH]c2c1)N1CCC2(CC1)CCN(Cc1cc(F)ccc1F)C2=O` [Compound 46, 2-(2,5-difluorobenzyl)-8-(1H-indole-6-carbonyl)-2,8-diazaspiro[4.5]decan-1-one]: at RIPK1 kinase, it took 624 nM to reach half-maximal inhibition (IC50) and the inhibition at 10 µM was greater than 50%. The EC50 in the experiment on U937 cells worked out at 1200 nM.
For `O=C(c1ccc2cc[nH]c2c1)N1CCC2(CC1)CCN(Cc1ccccc1F)C2=O` [Compound 44, 2-(2-fluorobenzyl)-8-(1H-indole-6-carbonyl)-2,8-diazaspiro[4.5]decan-1-one], in that order: 186 nM, greater than 50% and 161 nM.
Consider `O=C(c1ccccc1)N1CCC2(CC1)CCN(Cc1cc(F)ccc1F)C2=O` [Compound 34, 8-benzoyl-2-(2,5-difluorobenzyl)-2,8-diazaspiro[4.5]decan-1-one], for which, on RIPK1 kinase, the IC50 is 693 nM and the inhibition at 10 µM was greater than 50%. Also, the EC50 with U937 cells turned out to be 1340 nM.
`Cn1ccc2ccc(C(=O)N3CCC4(CC3)CCN(Cc3ccccc3F)C4=O)cc21` [Compound 50, 2-(2-fluorobenzyl)-8-(1-methyl-1H-indole-6-carbonyl)-2,8-diazaspiro decan-1-one]: on RIPK1 kinase, the IC50 came to 102 nM and the inhibition at 10 µM is greater than 50%. For the same molecule, the EC50 in the experiment with U937 cells came to 1560 nM.
Take `O=C(c1ccccc1)N1CCC2(CC1)CCN(Cc1ccccc1F)C2=O` [Compound 31, 8-benzoyl-2-(2-fluorobenzyl)-2,8-diazaspiro[4.5]decan-1-one]: on RIPK1 kinase, the IC50 came out at 186 nM and the inhibition at 10 µM was greater than 50%. In the experiment on U937 cells, the EC50 turned out to be 1050 nM. Moreover, in experiment [1] (setting [2]), the nerve injury score result is reported as “significantly reduce” and the “water content in the ischemic side” value is “significantly reduce”. For the same molecule, the infarct volume result in experiment [1] (2.5 mg/kg and 5 mg/kg bid, 48 h after ischemia/reperfusion, TTC staining) is “significantly reduce”. Further, the “protective effect on cerebral ischemia injury compared with edaravone” value in experiment [1] (5 mg/kg bid vs positive control edaravone 5 mg/kg QD) is “stronger protective effect”.
Take `O=C(c1cnco1)N1CCC2(CC1)CCN(Cc1cc(F)ccc1F)C2=O` [Compound 42, 2-(2,5-difluorobenzyl)-8-(oxazole-5-carbonyl)-2,8-diazaspiro[4.5]decan-1-one]: at RIPK1 kinase, the IC50 is 1040 nM and the inhibition at 10 µM was greater than 50%. Also, the EC50 with U937 cells was 1650 nM.
